Source: patent US9115134B2, “6-triazolopyridazine sulfanyl benzothiazole derivatives as MET inhibitors” (SANOFI, priority 2007, dated 2015)

Columns and labels:
[1] = test system: HCT116 cells, MKN45 cells; test: Test C: Measurement of cell proliferation by 14C-thymidine pulse; format: cell-based; settings: 14C-thymidine incorporation, 96 h of treatment; cell line not given
Protocol: (§1) Stop the reaction with 100 μl of stop solution. Read without delay at […], 0.1 second on Wallac Victor plate reader. • C) Test C: Measurement of cell proliferation by ^14c-thymidine pulse
The cells are seeded into Cytostar 96-well plates in 180 μl for 4 hours at 37° C. and 5% CO2: HCT116 cells at a rate of 2500 cells per well in DMEM medium+10% foetal calf serum+1% L-glutamine and MKN45 cells at a rate of 7500 cells per well in RPMI medium+10% foetal calf serum+1% L-glutamine. After these 4 hours of incubation, the products are added in 10 μl as a 20-fold concentrated solution according to the dilution method mentioned for the ELISA. The products are tested at 10 concentrations in duplicate from 10 000 nM to 0.3 nM with an increment of 3.
After treatment for 72 h, add 10 μl of ^14C-thymidine at 10 μCi/ml to obtain 0.1 μCi per well. The ^14C-thymidine incorporation is measured on a Micro-Beta machine (Perkin-Elmer) after 24 hours of pulse and 96 h of treatment.
All the steps of the assay are automated on BIOMEK 2000 or TECAN stations.

MET [2] = target: T1, MET (Homo sapiens, UniProt P08581); test: Test B: Inhibition of the autophosphorylation of MET; ELISA technique (pppY1230,1234,1235) in MKN45 cells; format: cell-based; parameters: Seed MKN45 cells into 96-well plates (Cell coat BD polylysine) at 20 000 cells/well; endogenous in cells; host or cells: MKN45 cells; settings: 1 h treatment, PhosphoMET ELISA
Protocol: Leave to adhere for 24 hours in an incubator.
The cells are treated the day after seeding with the products at 6 concentrations in duplicate for 1 h. At least 3 control wells are treated with the same final amount of DMSO.
Product dilution: Stock at 10 mM in pure DMSO—range from 10 mM to 30 μM with an increment of 3 in pure DMSO—intermediate 1/50 dilutions in culture medium and then removal of 10 μl added directly to the cells (200 μl): final range of 10 000 to 30 nM.
At the end of the incubation, carefully remove the supernatant and rinse with 200 μl of PBS. Next, place 100 μl of lysis buffer directly in the wells on ice and incubate at 4° C. for 30 minutes. Lysis buffer: 10 mM Tris HCl, pH7.4, 100 mM NaCl, 1 mM EDTA, 1 mM EGTA, 1% Triton X-100, 10% glycerol, 0.1% SDS, 0.5% deoxycholate, 20 mM NaF, 2 mM Na3VO4, 1 mM PMSF and cocktail of antiproteases.
The 100 μl of lysates are transferred into a V-bottomed polypropylene plate and the ELISA is performed immediately, or the plate is frozen at −80° C. • b) PhosphoMET ELISA BioSource Kit KH00281
Into each well of the kit plate, add 70 μl of kit dilution buffer+30 μL of cell lysate or 30 μl of lysis buffer for the blanks. Incubate for 2 h with gentle agitation at ambient temperature.
Rinse the wells 4 times with 400 μl of kit washing buffer. Incubate with 100 μl of anti-phospho MET antibody for 1 hour at ambient temperature.
Rinse the wells 4 times with 400 μl of kit washing buffer. Incubate with 100 μl of anti-rabbit HRP antibody for 30 minutes at ambient temperature (except for the wells of chromogen alone).
Rinse the wells 4 times with 400 μl of kit washing buffer. Introduce 100 μL of chromogen and incubate for 30 minutes in the dark at ambient temperature.
as §1
Target sequence in this assay (P08581 25-1390): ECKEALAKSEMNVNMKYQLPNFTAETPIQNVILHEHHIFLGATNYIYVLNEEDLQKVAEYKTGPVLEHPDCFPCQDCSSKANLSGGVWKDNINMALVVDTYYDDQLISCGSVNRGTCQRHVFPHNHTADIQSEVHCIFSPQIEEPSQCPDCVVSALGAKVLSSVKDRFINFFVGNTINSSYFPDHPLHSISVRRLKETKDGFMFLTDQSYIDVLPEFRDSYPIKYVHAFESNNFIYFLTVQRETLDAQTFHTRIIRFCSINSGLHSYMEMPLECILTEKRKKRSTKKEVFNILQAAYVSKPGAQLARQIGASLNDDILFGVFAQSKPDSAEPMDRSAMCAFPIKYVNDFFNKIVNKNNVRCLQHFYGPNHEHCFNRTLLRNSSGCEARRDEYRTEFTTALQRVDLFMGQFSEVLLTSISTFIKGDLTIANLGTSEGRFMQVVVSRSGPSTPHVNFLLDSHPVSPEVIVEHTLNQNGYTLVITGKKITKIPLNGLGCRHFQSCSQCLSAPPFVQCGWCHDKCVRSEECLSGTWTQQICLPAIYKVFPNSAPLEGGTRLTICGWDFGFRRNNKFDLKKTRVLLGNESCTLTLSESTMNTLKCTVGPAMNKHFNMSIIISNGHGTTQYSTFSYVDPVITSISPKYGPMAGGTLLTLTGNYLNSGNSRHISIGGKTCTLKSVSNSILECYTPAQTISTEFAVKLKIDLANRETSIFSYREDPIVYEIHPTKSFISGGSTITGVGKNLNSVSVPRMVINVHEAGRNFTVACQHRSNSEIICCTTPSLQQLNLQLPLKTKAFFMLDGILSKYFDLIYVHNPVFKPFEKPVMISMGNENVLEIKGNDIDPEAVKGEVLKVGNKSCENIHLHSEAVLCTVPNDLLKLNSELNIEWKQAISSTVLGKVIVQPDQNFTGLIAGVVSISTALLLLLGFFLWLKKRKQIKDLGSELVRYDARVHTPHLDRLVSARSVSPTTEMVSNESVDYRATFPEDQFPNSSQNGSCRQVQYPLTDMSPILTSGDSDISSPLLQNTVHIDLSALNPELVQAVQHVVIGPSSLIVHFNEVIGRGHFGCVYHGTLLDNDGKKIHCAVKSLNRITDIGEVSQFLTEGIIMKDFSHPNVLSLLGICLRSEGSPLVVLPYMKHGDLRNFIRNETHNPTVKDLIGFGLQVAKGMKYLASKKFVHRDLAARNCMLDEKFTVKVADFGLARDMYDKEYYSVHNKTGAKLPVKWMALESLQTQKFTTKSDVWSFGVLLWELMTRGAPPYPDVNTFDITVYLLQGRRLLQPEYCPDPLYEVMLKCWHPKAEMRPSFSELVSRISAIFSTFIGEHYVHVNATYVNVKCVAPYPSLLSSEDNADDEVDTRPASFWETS

MET [3] = target: T1, MET; test: Test A: HTRF MET assay in 96-well format; format: biochemical; parameters: The His-Tev-MET (956-1390) recombinant DNA in pFastBac (Invitrogen) is transfected into insect cells; His tag (N, cleaved yes); TEV cleavage site (N); made in house; host or cells: SF21 insect cells (baculovirus, pFastBac); settings: MET 5 nM, 10 μM ATP
Protocol: I) Expression and Purification of MET, Cytoplasmic Domain
The His-Tev-MET (956-1390) recombinant DNA in pFastBac (Invitrogen) is transfected into insect cells, and after several viral amplification steps, the final baculovirus stock is tested for the expression of the protein of interest.
After infection for 72 h at 27° C. with the recombinant virus, the SF21 cell cultures are harvested by centrifugation and the cell pellets are stored at −80° C.
The cell pellets are resuspended in lysis buffer (buffer A [50 mM HEPES, pH 7.5, 250 mM NaCl, 10% glycerol, 1 mM TECP]; +cocktail of protease inhibitors, Roche Diagnostics, without EDTA, ref 1873580), stirred at 4° C. until the mixture is homogeneous and then lyzed mechanically using a “Dounce” type apparatus.
After centrifugation, the lysis supernatant is incubated for 2 h at 4° C. with nickel chelate resin (His-Trap 6 Fast Flow™, GE HealthCare). After washing with 20 volumes of buffer A, the suspension is packed into a column, and the proteins are eluted with a gradient of buffer B ([…]+290 mM imidazole).
The fractions containing the protein of interest for the purpose of electrophoretic analysis (SDS PAGE) are combined, concentrated by ultrafiltration (10 kDa cut-off) and injected onto an exclusion chromatography column (Superdex™ 200, GE HealthCare) equilibrated in buffer A.
After enzymatic cleavage of the histidine tag, the protein is reinjected onto a new IMAC nickel chelate chromatography column (His-Trap 6 Fast Flow™, GE HealthCare) equilibrated in buffer A. The fractions eluted with a gradient of buffer B and containing the protein of interest after electrophoresis (SDS PAGE) are finally combined and conserved at −80° C.
For the production of autophosphorylated protein, the previous fractions are incubated for 1 h at ambient temperature after the addition of 2 mM ATP, 2 mM MgCl2, and 4 mM Na3VO4. After the reaction has been stopped with 5 mM of EDTA, the reaction mixture is injected onto a HiPrep desalifying column (GE HealthCare) preequilibrated in buffer A+4 mM Na3VO4, and the fractions containing the protein of interest (SDS PAGE analysis) are combined and stored at −80° C. The degree of phosphorylation is verified by mass spectrometry (LC-MS) and by peptide mapping.
• A) Test A: HTRF MET assay in 96-well format
MET at a final concentration of 5 nM is incubated in a final volume of 50 μl of enzymatic reaction in the presence of the test molecule (for a final concentration range of from 0.17 nM to 10 μM, 3% DMSO final concentration) in 10 mM MOPS buffer, pH 7.4, 1 mM DTT, 0.01% Tween 20. The reaction is initiated with the substrate solution to obtain final concentrations of 1 μg/ml poly-(GAT), 10 μM ATP and 5 mM MgCl2. After incubation for 10 min at ambient temperature, the reaction is stopped with a 30 μl mix so as to obtain a final solution of 50 mM Hepes pH 7.5, 500 mM potassium fluoride, 0.1% BSA and 133 mM EDTA in the presence of 80 ng of streptavidin 61SAXLB Cis-Bio Int. and 18 ng of anti-phosphotyrosine Mab PT66-Europium Cryptate per well. After incubation for 2 hours at ambient temperature, the reading is taken at 2 wavelengths, 620 nm and 665 nm, on a reader for the TRACE/HTRF technique and the % inhibition is calculated from the 665/620 ratios.
Target sequence in this assay (P08581 956-1390): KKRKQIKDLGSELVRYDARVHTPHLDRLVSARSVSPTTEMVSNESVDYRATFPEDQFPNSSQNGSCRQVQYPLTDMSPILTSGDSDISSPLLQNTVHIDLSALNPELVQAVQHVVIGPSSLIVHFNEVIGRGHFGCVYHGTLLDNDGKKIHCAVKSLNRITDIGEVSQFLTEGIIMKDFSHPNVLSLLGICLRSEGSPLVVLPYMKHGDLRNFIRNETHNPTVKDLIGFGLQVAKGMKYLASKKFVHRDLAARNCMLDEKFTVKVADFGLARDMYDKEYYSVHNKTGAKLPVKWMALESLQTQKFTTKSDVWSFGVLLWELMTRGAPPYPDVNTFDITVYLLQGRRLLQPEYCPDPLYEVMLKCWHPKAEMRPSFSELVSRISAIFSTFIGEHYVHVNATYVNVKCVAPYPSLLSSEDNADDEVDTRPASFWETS

Row | Compound | IC50 [1] | IC50 (MET [2]) | IC50 (MET [3])
1 | COC(=O)Nc1nc2ccc(Sc3nnc4ccc(-c5ccc(F)cc5)nn34)cc2s1 [Example 1, Methyl (6-{[6-(4-fluorophenyl)[1,2,4]triazolo[4,3-b]pyridazin-3-yl]sulphanyl}-1,3-benzothiazol-2-yl)carbamate] | < 1000 nM | < 100 nM | < 100 nM
2 | CC(C)(C)OC(=O)Nc1nc2ccc(Sc3nnc4ccc(-c5ccc(F)cc5)nn34)cc2s1 [Example 2, 1,1-Dimethylethyl (6-{[6-(4-fluorophenyl)[1,2,4]triazolo[4,3-b]pyridazin-3-yl]sulphanyl}-1,3-benzothiazol-2-yl)carbamate] | < 1000 nM | 100 to 500 nM | < 100 nM
3 | Nc1nc2ccc(Sc3nnc4ccc(-c5ccc(F)cc5)nn34)cc2s1 [Example 3, 6-{[6-(4-Fluorophenyl)[1,2,4]triazolo[4,3-b]pyridazin-3-yl]sulphanyl}-1,3-benzothiazol-2-amine] | < 1000 nM | < 100 nM | < 100 nM
4 | COC(=O)Nc1nc2ccc(Sc3nnc4ccc(-c5ccc(F)cc5)nn34)cc2[nH]1 [Example 4, Methyl (6-{[6-(4-fluorophenyl)[1,2,4]triazolo[4,3-b]pyridazin-3-yl]sulphanyl}-1H-benzimidazol-2-yl)carbamate] | < 1000 nM | < 100 nM | < 100 nM
5 | COC(=O)Nc1nc2ccc(Sc3nnc4n3N=C(c3ccc(F)cc3)CC4)cc2[nH]1 [Example 5, Methyl (6-{[6-(4-fluorophenyl)-7,8-dihydro[1,2,4]triazolo[4,3-b]pyridazin-3-yl]sulphanyl}-1H-benzimidazol-2-yl)carbamate] | < 1000 nM | 100 to 500 nM | < 100 nM
6 | O=C(NCCN1CCOCC1)Nc1nc2ccc(Sc3nnc4ccc(-c5ccc(F)cc5)nn34)cc2[nH]1 [Example 6, 1-(6-{[6-(4-Fluorophenyl)[1,2,4]triazolo[4,3-b]pyridazin-3-yl]sulphanyl}-1H-benzimidazol-2-yl)-3-(2-morpholin-4-ylethyl)urea] | < 1000 nM | < 100 nM | < 100 nM
7 | Nc1nc2ccc(Sc3nnc4ccc(-c5ccc(F)cc5)nn34)cc2[nH]1 [Example 7, 6-{[6-(4-Fluorophenyl)[1,2,4]triazolo[4,3-b]pyridazin-3-yl]sulphanyl}-1H-benzimidazol-2-amine] | < 1000 nM | 100 to 500 nM | < 100 nM
8 | Nc1nc2ccc(Sc3ccc(C4=Nn5c(nnc5Sc5ccc6nc(N)sc6c5)CC4)cc3)cc2s1 [Example 8, 6-[(4-{3-[(2-amino-1,3-benzothiazol-6-yl)sulphanyl]-7,8-dihydro[1,2,4]triazolo-[4,3-b]pyridazin-6-yl}phenyl)sulphanyl]-1,3-benzothiazol-2-amine] | < 10000 nM | > 500 nM | < 100 nM
9 | O=C(NCCN1CCOCC1)Nc1nc2ccc(Sc3nnc4ccc(-c5ccc(F)cc5)nn34)cc2s1 [Example 9, 1-(6-{[6-(4-Fluorophenyl)[1,2,4]triazolo[4,3-b]pyridazin-3-yl]sulphanyl}-1,3-benzothiazol-2-yl)-3-(2-morpholin-4-ylethyl)urea] | < 1000 nM | < 100 nM | < 100 nM
10 | O=C(NCCN1CCOCC1)Nc1nc2ccc(Sc3nnc4cccnn34)cc2s1 [Example 10, 1-(2-Morpholin-4-ylethyl)-3-[6-([1,2,4]triazolo[4,3-b]pyridazin-3-ylsulphanyl)-1,3-benzothiazol-2-yl]urea] | < 1000 nM | < 100 nM | < 100 nM
11 | C[C@@H]1CN(CCNC(=O)Nc2nc3ccc(Sc4nnc5ccc(-c6ccc(F)cc6)nn45)cc3s2)C[C@H](C)O1 [Example 11, 1-{2-[(2R,6S)-2,6-dimethylmorpholin-4-yl]ethyl}-3-(6-{[6-(4-fluorophenyl)-[1,2,4]triazolo[4,3-b]pyridazin-3-yl]sulphanyl}-1,3-benzothiazol-2-yl)urea] | < 1000 nM | < 100 nM | < 100 nM
12 | O=C(Nc1nc2ccc(Sc3nnc4ccc(-c5ccc(F)cc5)nn34)cc2s1)OCCN1CCOCC1 [Example 12, 2-Morpholin-4-ylethyl (6-{[6-(4-fluorophenyl)[1,2,4]triazolo[4,3-b]pyridazin-3-yl]sulphanyl}-1,3-benzothiazol-2-yl)carbamate] | < 1000 nM | < 100 nM | < 100 nM
13 | CN1CCN(CCNC(=O)Nc2nc3ccc(Sc4nnc5n4N=C(c4ccc(F)cc4)CC5)cc3s2)CC1 [Example 13, 1-(6-{[6-(4-Fluorophenyl)-7,8-dihydro[1,2,4]triazolo[4,3-b]pyridazin-3-yl]sulphanyl}-1,3-benzothiazol-2-yl)-3-[2-(4-methylpiperazin-1-yl)ethyl]urea] | < 1000 nM | < 100 nM | < 100 nM
14 | CN1CCN(CCNC(=O)Nc2nc3ccc(Sc4nnc5ccc(-c6ccc(F)cc6)nn45)cc3s2)CC1 [Example 14, 1-(6-{[6-(4-Fluorophenyl)[1,2,4]triazolo[4,3-b]pyridazin-3-yl]sulphanyl}-1,3-benzothiazol-2-yl)-3-[2-(4-methylpiperazin-1-yl)ethyl]urea] | < 1000 nM | < 100 nM | < 100 nM
